Experimental data as given in ChEMBL document CHEMBL1134132, “Development of potent and selective factor Xa inhibitors” (Bioorg Med Chem Lett, 2001).
One block for each compound: values may come before it.

Assays:
Prothrombin = Prothrombin (Homo sapiens, UniProt P00734); assay: Inhibitory activity against thrombin(fIIa) in human plasma; format: cell-free
Coagulation factor X = Coagulation factor X (Homo sapiens, UniProt P00742); assay: Inhibitory activity against Coagulation factor X in human plasma; format: cell-free
Coagulation factor X, sequence (P00742 41-179 limits assumed): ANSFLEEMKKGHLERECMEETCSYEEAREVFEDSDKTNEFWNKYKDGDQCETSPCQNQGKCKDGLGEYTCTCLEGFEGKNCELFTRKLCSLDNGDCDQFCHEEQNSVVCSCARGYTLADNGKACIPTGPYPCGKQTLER
Coagulation factor X, sequence (P00742 235-488 limits assumed): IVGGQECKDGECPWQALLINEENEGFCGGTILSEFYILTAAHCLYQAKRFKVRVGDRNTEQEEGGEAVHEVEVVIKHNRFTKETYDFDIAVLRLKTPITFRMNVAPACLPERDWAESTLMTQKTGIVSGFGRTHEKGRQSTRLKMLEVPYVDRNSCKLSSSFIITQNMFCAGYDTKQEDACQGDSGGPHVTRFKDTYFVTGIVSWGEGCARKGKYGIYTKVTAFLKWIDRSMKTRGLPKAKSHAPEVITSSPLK

Serine protease 1 = Serine protease 1 (Homo sapiens, UniProt P07477); assay: Inhibitory activity against trypsin in human plasma; format: cell-free
Serine protease 1, sequence (P07477 whole entry): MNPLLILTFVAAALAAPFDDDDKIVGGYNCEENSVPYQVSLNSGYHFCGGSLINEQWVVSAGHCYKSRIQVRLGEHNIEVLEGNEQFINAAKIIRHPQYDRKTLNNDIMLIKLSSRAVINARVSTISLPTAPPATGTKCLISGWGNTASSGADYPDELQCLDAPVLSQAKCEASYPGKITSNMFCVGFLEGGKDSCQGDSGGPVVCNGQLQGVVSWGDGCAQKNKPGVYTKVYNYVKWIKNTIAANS

Plasminogen = Plasminogen (Homo sapiens, UniProt P00747); assay: Inhibitory activity against plasmin in human plasma; format: cell-free
Plasminogen, sequence (P00747 97-580 limits assumed): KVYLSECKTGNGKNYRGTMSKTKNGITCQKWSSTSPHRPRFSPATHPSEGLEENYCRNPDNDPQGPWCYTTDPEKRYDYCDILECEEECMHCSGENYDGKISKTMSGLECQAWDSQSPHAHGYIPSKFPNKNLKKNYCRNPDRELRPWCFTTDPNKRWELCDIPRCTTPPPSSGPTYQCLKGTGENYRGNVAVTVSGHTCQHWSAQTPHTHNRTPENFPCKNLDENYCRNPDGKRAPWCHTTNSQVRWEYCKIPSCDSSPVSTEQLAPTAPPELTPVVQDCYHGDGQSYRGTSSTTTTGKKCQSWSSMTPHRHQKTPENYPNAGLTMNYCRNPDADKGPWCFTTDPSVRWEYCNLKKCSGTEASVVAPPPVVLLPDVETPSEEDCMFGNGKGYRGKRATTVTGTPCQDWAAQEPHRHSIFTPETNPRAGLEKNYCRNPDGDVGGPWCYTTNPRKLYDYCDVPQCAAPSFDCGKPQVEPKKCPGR
Plasminogen, sequence (P00747 581-810 limits assumed): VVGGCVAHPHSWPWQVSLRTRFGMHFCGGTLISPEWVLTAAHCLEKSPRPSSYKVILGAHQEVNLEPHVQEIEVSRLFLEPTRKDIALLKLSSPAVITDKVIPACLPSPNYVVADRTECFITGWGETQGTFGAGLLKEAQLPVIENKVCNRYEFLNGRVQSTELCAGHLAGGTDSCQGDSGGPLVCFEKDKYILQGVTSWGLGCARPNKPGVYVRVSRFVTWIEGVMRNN

[1] = target: Urokinase-type plasminogen activator (Homo sapiens, UniProt P00749)
[2] = In vitro anticoagulant effect to double the activated partial thromboplastin time in human plasma; format: functional

SMILES: Cc1cc(Cl)c(O)c(-c2cc3cc(C(=N)N)ccc3[nH]2)c1
Ki (Prothrombin): 460 nM | Ki (Coagulation factor X): 130 nM | Ki (Serine protease 1): 700 nM | Ki (Plasminogen): 1000 nM | Ki [1]: 190 nM

SMILES: Cc1cc(Br)c(O)c(-c2cc3cc(C(=N)N)ccc3[nH]2)c1
Ki (Prothrombin): 360 nM | Ki (Coagulation factor X): 100 nM | Ki (Serine protease 1): 640 nM | Ki (Plasminogen): 1200 nM | Ki [1]: 110 nM

SMILES: Cc1cc(-c2ccccc2)c(O)c(-c2cc3cc(C(=N)N)ccc3[nH]2)c1
Ki (Prothrombin): 4000 nM | Ki (Coagulation factor X): 640 nM | Ki (Serine protease 1): 1800 nM | Ki (Plasminogen): 1500 nM | Ki [1]: 110 nM

SMILES: N=C(N)c1ccc2[nH]c(-c3cc(CCCC(=O)O)cc(Br)c3O)c(Cc3ccccc3)c2c1
Ki (Prothrombin): 40 nM | Ki (Coagulation factor X): 0.7 nM | Ki (Serine protease 1): 610 nM | Ki (Plasminogen): 1500 nM | Ki [1]: 270 nM | 2x aPPT [2]: 0.75 µM

SMILES: Cc1cc(C)c(O)c(-c2cc3cc(C(=N)N)ccc3[nH]2)c1
Ki (Prothrombin): 6900 nM | Ki (Coagulation factor X): 1200 nM | Ki (Serine protease 1): 5000 nM | Ki (Plasminogen): 10000 nM | Ki [1]: 2300 nM

SMILES: Cc1cc(Br)c(O)c(-c2[nH]c3ccc(C(=N)N)cc3c2CCc2ccccc2)c1
Ki (Prothrombin): 710 nM | Ki (Coagulation factor X): 350 nM | Ki (Serine protease 1): 3400 nM | Ki (Plasminogen): 8800 nM | Ki [1]: 2300 nM

SMILES: Cc1ccc(O)c(-c2cc3cc(C(=N)N)ccc3[nH]2)c1
Ki (Prothrombin): 23000 nM | Ki (Serine protease 1): 8200 nM | Ki (Plasminogen): 21000 nM | Ki [1]: 12400 nM

SMILES: N=C(N)c1ccc2[nH]c(-c3cc(CCOP(=O)(O)O)cc(Br)c3O)c(Cc3ccccc3)c2c1
Ki (Prothrombin): 330 nM | Ki (Coagulation factor X): 0.5 nM | Ki (Serine protease 1): 3800 nM | Ki (Plasminogen): 1200 nM | Ki [1]: 400 nM | 2x aPPT [2]: 0.42 µM

SMILES: Cc1cc(Br)c(O)c(-c2[nH]c3ccc(C(=N)N)cc3c2CCCc2ccccc2)c1
Ki (Prothrombin): 6600 nM | Ki (Coagulation factor X): 7600 nM | Ki (Serine protease 1): 42000 nM | Ki (Plasminogen): 32000 nM | Ki [1]: 8600 nM

SMILES: N=C(N)c1ccc2[nH]c(-c3cc(CC(N)=O)cc(Br)c3O)c(Cc3ccccc3)c2c1
Ki (Prothrombin): 25 nM | Ki (Coagulation factor X): 2 nM

SMILES: CC(C)(C(=O)O)c1cc(Br)c(O)c(-c2[nH]c3ccc(C(=N)N)cc3c2Cc2ccccc2)c1
Ki (Prothrombin): 750 nM | Ki (Coagulation factor X): 10 nM | Ki (Serine protease 1): 1300 nM | Ki (Plasminogen): 3000 nM | Ki [1]: 350 nM | 2x aPPT [2]: 0.93 µM

SMILES: Cc1cc(Br)c(O)c(-c2[nH]c3ccc(C(=N)N)cc3c2Cc2ccccc2)c1
Ki (Prothrombin): 260 nM | Ki (Coagulation factor X): 20 nM | Ki (Serine protease 1): 2400 nM | Ki (Plasminogen): 4600 nM | Ki [1]: 1600 nM | 2x aPPT [2]: 3.9 µM

SMILES: N=C(N)c1ccc2[nH]c(-c3cc(-c4nn[nH]n4)cc(Br)c3O)c(Cc3ccccc3)c2c1
Ki (Prothrombin): 350 nM | Ki (Coagulation factor X): 10 nM | Ki (Serine protease 1): 1300 nM | Ki (Plasminogen): 4200 nM | Ki [1]: 550 nM | 2x aPPT [2]: 0.7 µM

SMILES: N=C(N)c1ccc2[nH]c(-c3cc(Cc4nn[nH]n4)cc(Br)c3O)c(Cc3ccccc3)c2c1
Ki (Prothrombin): 440 nM | Ki (Coagulation factor X): 20 nM | Ki (Serine protease 1): 840 nM | Ki (Plasminogen): 2200 nM | Ki [1]: 350 nM | 2x aPPT [2]: 0.59 µM

Now from value to compound, other results behind:

Ki (Prothrombin): 2500 nM | Ki (Coagulation factor X): 45 nM
SMILES: COc1c(Br)cc(CCC(=O)O)cc1-c1[nH]c2ccc(C(=N)N)cc2c1Cc1ccccc1

Ki (Prothrombin): 12000 nM | Ki (Coagulation factor X): 1000 nM
SMILES: N=C(N)c1ccc2[nH]c(-c3cc(Br)cc(CCC(=O)O)c3)c(Cc3ccccc3)c2c1

Ki (Prothrombin): 43 nM | Ki (Coagulation factor X): 2 nM
SMILES: CN(C)C(=O)Cc1cc(Br)c(O)c(-c2[nH]c3ccc(C(=N)N)cc3c2Cc2ccccc2)c1

Ki (Prothrombin): 80 nM | Ki (Coagulation factor X): 3 nM
SMILES: COC(=O)Cc1cc(Br)c(O)c(-c2[nH]c3ccc(C(=N)N)cc3c2Cc2ccccc2)c1

Ki (Prothrombin): 1000 nM | Ki (Coagulation factor X): 3 nM | Ki (Serine protease 1): 1200 nM | Ki (Plasminogen): 1800 nM | Ki [1]: 430 nM
SMILES: N=C(N)c1ccc2[nH]c(-c3cc(CC(=O)O)cc(Br)c3O)c(Cc3ccccc3)c2c1
2x aPPT [2]: 0.38 µM

Ki (Coagulation factor X): 4 nM | Ki (Serine protease 1): 440 nM | Ki (Plasminogen): 1500 nM
SMILES: N=C(N)c1ccc2[nH]c(-c3cc(C(=O)O)cc(Br)c3O)c(Cc3ccccc3)c2c1
2x aPPT [2]: 0.55 µM

Ki (Prothrombin): 700000 nM | Ki (Coagulation factor X): 300000 nM
SMILES: O=C(O)CCc1cc(Br)c(O)c(-c2[nH]c3ccccc3c2Cc2ccccc2)c1

Ki (Prothrombin): 120 nM | Ki (Coagulation factor X): 0.5 nM | Ki (Serine protease 1): 600 nM | Ki (Plasminogen): 1700 nM | Ki [1]: 280 nM
SMILES: N=C(N)c1ccc2[nH]c(-c3cc(CCC(=O)O)cc(Br)c3O)c(Cc3ccccc3)c2c1
2x aPPT [2]: 0.52 µM

Ki (Prothrombin): 78000 nM
SMILES: NC(=O)c1ccc2[nH]c(-c3cc(CCC(=O)O)cc(Br)c3O)c(Cc3ccccc3)c2c1
